The record followed here is US11319313B2, “Crystalline forms of deuterium-enriched pioglitazone” (Poxel SA, priority 2020, dated 2022).

Marks after values point to notes of the source that are not given here.

Series [1] in a line: Phase Ib repeated-dose PK study in healthy human subjects. It counts as in vivo. The conditions noted are these: for AUC0-24,ss, total pioglitazone / AUC0-24, ss dose normalized, total pioglitazone: steady state; for AUC0-24,ss, total pioglitazone: fasting. As to the method: Subjects were screened within 28 days before their first dose of study medication. They stayed in the clinic from 1 day before dosing (Day −1) until at least 48 hours after their final dose of trial medication (Day 11).
Each dose group was composed of 4 males and 4 females in a 3:1 active/placebo ratio. • One (1) Actos® group: 6 subjects (3 males and 3 females) were given Actos®. Placebo was not given to any subjects in this group.
Subjects received a single oral dose of study drug (7.5, 15, or 30 mg tablets of PXL065 or matching placebo tablets, or 45 mg Actos® tablets), under fasting conditions on Day 1. […] All study drugs were dosed in fasting conditions.
The PXL065 PK parameters of the three single oral doses on Day 1 and after seven daily administrations on Day 9 were compared to the Actos® PK parameters on Day 1 and after seven daily administrations on Day 9.
PXL065, orally administered. Dose=1×7.5 mg tablet, 1×15 mg tablet, or 1×30 mg tablet.
(§1) Actos®, orally administered. Dose=1×45 mg, tablet.
One single oral administration of PXL065 or matching placebo or Actos® was given on Day 1 in fasting conditions followed by once daily multiple oral administrations of PXL065 or matching placebo or Actos® from Day 3 to Day 9 (7 days) in fasting conditions.
Pharmacokinetics: Plasma samples were analyzed using a validated assay. The samples from all evaluable subjects were analyzed. Samples from subjects who experienced emesis within 4 hours of dosing were not analyzed.
Plasma PK parameters included, but were not limited to: • Following single dose on Day 1 and Day 3 (for PXL065 groups): tmax, tlag, Cmax, AUC0-last, AUC0-24, AUC0-inf, λz, t1/2, % AUCext, CL/F, Vz/F, Cmax/Dose, AUC0-last/Dose, AUC0-inf/Dose and MRT each calculated using compartmental or non-compartmental methods as appropriate for the deuterated and protonated (R)- and (S)-enantiomers of pioglitazone. • Day 4 to Day 9: Ctrough for the deuterated and protonated (R)- and (S)-enantiomers of pioglitazone; and • Following repeated doses on Day 9: tmax, Cmax, Cavg, tlag, AUC0-last, AUC0-24, AUC0-inf, λz, t1/2, % AUCext, CLss/F, Vzss/F, MRT, PTF, Rac(AUC0-24), Rac(Cmax) SR(AUC), Cmax/Dose, AUC0-last/Dose, AUC0-inf/Dose, AUC0-24/Dose. Safety

A short description of series [2]: Dog pharmacokinetic (PK) study, single oral administration. It counts as in vivo, Beagle dogs. Here is the method: The 3 Beagle male dogs were fasted before dosing. Then all test drugs were administered by the oral route using API in a capsule. [table] Food was given no sooner than one hour after dose administration on the days of treatment. Each administration was separated by a wash-out period of at least 2 days. […] Predose (just before dosing) and then […] after dosing.

Series [3] in a line: 13-week dog toxicology study, toxicokinetics on day 91. The conditions noted are these: for AUC0-24, ss dose normalized, total pioglitazone: Day 91, 5 mg/kg/day; for AUC0-24,ss, total pioglitazone: Day 91, oral capsule 5 mg/kg/day.
Series [4] can be described thus: Phase Ia single-dose PK study in healthy human subjects. It counts as in vivo. The conditions noted are these: single oral dose 22.5 mg capsule. As to the method:
PXL065, orally administered.
as §1

Where [5] appears, read: single oral 5 mg/kg (capsule), fasted male dogs, plasma, mean.

As to `[2H][C@]1(Cc2ccc(OCCc3ccc(CC)cn3)cc2)SC(=O)NC1=O` [PXL065, deuterium-enriched (R)-pioglitazone], the “AUC0-24,ss, total pioglitazone” value in series [1] (15 mg tablet once daily, repeated doses) is 6505 ng·h/mL. Also, the “AUC0-24, ss dose normalized, total pioglitazone” value (“AUC0-24, ss dose normalized” below) in series [1] (15 mg tablet) is 434 ng·h/mL/mg. In addition, the “AUC0-24,ss, total pioglitazone” value in series [1] (30 mg tablet once daily, repeated doses) worked out at 13802 ng·h/mL. Further, the “AUC0-24, ss dose normalized” value in series [1] (30 mg tablet) was 460 ng·h/mL/mg. For the same molecule, in series [1] (humans, repeated doses), the “Increase of relative bioavailability compared to Actos” value was 55%-65%. For the same molecule, in series [2] (dog, in vivo, po, 5 mg/kg), the “AUC0-24, Total Pio” value is 7000 ng·h/mL; the “AUC0-24, Total R-pio” value is 5770 ng·h/mL; the “AUC0-24, Total S-pio” value is 1240 ng·h/mL; the “Cmax, Total Pio” value is 1520 ng/mL. Also, in series [2] (dog, in vivo, po, 5 mg/kg), the “Cmax, Total R-pio” value is reported as 1330 ng/mL; the “Cmax, Total S-pio” value worked out at 227 ng/mL; the “Tmax, Total Pio” value is reported as 1 h; the “Tmax, Total R-pio” value is on record as 1 h. Further, in series [2] (dog, in vivo, po, 5 mg/kg), the “Tmax, Total S-pio” value stood at 2 h. Also, in series [2] (setting [5]), the “T1/2z, Total Pio” value is reported as 1.46^a h; the “T1/2z, Total R-pio” value is on record as 1.43^a h; the “T1/2z, Total S-pio” value is on record as 1.62^a h. In series [3] (female dogs (F)), the “AUC0-24, ss dose normalized” value was 1762 ng·h/mL and the “AUC0-24,ss, total pioglitazone” value amounted to 8710 ng·h/mL. Further, in series [3] (male dogs (M)), the “AUC0-24, ss dose normalized” value was 2180 ng·h/mL and the “AUC0-24,ss, total pioglitazone” value turned out to be 10900 ng·h/mL. Besides, in series [4], the “AUCinf dose normalized, total pioglitazone” value is 618 ng·h/mL/mg. For the same molecule, the “AUCinf, total pioglitazone” value in series [4] (fasted healthy subjects) is 13896 ng·h/mL.
